This note sets out measurements from ChEMBL document CHEMBL5291721, “A preclinical secondary pharmacology resource illuminates target-adverse drug reaction associations of marketed drugs” (Nat Commun, 2023).

The structures appear in SMILES notation. Where only a bound is given, the exact number is not on record here.

Test [1] has as its target Voltage-dependent L-type calcium channel subunit alpha-1C (Homo sapiens, UniProt Q13936). In kind it is functional, cell-based.
In test [2] the target is T1, Estrogen receptor (Homo sapiens, UniProt P03372).
T1 sequence (P03372 whole entry): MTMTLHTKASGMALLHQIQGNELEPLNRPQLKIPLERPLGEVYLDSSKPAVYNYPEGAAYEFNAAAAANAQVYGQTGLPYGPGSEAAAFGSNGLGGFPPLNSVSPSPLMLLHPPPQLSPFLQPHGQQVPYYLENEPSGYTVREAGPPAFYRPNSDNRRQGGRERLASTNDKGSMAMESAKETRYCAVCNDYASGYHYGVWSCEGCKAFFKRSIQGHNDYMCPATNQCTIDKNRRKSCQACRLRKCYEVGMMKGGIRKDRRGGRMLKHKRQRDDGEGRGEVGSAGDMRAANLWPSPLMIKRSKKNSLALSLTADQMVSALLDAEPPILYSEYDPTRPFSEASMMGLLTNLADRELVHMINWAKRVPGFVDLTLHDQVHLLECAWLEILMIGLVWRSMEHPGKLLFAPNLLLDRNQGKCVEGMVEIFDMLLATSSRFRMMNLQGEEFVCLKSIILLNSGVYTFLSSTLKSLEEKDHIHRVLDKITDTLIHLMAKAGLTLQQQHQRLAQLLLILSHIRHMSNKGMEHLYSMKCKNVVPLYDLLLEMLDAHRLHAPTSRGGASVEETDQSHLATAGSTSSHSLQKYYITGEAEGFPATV
In kind it is functional.

A further test deals with T2, Glucocorticoid receptor (Homo sapiens, UniProt P04150).
T2 sequence (P04150 whole entry): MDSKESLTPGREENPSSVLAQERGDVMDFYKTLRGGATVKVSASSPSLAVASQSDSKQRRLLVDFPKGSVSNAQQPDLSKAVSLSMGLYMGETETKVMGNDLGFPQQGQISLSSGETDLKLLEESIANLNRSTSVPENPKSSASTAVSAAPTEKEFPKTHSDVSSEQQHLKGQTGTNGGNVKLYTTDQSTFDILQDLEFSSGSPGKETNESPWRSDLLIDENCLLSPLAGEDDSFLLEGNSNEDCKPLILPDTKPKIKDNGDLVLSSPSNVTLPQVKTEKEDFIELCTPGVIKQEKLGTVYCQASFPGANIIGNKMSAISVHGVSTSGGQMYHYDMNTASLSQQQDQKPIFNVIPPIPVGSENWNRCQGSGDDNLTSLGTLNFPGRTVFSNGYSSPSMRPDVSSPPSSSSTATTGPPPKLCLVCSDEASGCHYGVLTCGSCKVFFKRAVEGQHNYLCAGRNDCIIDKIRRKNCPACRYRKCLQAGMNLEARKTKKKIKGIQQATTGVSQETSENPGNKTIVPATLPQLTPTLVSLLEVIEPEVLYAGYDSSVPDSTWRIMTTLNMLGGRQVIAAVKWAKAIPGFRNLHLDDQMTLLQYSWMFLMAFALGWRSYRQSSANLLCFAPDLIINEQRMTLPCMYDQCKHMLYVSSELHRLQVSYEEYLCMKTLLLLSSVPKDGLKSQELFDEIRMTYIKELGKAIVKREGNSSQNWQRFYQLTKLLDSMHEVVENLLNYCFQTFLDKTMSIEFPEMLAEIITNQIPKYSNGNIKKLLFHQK
In kind it is functional.

In test [3] the target is T1, Estrogen receptor. In kind it is functional. The source holds these as a separate data set.
The target of test [4] is 5-hydroxytryptamine receptor 7 (Homo sapiens, UniProt P34969).
Sequence of 5-hydroxytryptamine receptor 7 (P34969 whole entry): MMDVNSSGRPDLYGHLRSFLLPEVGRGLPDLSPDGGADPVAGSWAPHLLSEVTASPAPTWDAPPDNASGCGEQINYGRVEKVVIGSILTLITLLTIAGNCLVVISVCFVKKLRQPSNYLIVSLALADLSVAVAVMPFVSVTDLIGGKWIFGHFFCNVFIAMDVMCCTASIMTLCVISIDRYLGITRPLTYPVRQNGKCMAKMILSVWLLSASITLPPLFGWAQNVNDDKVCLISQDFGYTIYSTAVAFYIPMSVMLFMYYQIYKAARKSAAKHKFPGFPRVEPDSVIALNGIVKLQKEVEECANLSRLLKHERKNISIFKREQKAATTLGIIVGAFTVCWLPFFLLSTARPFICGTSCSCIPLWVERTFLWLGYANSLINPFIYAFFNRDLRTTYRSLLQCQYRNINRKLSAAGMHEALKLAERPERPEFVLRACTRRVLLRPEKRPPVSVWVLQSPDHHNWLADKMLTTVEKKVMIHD
Test [5] has as its target Synaptic vesicular amine transporter (Rattus norvegicus, UniProt Q01827). In kind it is functional.
Test [6] deals with 5-hydroxytryptamine receptor 6 (Homo sapiens, UniProt P50406).
Sequence of 5-hydroxytryptamine receptor 6 (P50406 whole entry): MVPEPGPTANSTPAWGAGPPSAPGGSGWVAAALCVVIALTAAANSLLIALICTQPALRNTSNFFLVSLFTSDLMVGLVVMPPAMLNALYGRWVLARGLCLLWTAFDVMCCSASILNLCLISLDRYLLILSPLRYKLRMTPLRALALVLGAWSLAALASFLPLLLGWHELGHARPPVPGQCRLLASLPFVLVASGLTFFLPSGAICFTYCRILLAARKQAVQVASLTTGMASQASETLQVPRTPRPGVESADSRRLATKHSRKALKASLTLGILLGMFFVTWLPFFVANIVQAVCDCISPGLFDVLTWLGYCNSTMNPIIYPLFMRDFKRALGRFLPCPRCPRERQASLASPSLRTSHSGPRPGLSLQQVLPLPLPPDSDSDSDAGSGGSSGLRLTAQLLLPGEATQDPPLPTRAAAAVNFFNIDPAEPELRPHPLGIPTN
A further test has as its target Cannabinoid receptor 1 (Homo sapiens, UniProt P21554). The class given is functional.
For test [7], the target named is Rod cGMP-specific 3',5'-cyclic phosphodiesterase subunit alpha (Homo sapiens, UniProt P16499). The class given is functional.
Sequence of Rod cGMP-specific 3',5'-cyclic phosphodiesterase subunit alpha (P16499 whole entry): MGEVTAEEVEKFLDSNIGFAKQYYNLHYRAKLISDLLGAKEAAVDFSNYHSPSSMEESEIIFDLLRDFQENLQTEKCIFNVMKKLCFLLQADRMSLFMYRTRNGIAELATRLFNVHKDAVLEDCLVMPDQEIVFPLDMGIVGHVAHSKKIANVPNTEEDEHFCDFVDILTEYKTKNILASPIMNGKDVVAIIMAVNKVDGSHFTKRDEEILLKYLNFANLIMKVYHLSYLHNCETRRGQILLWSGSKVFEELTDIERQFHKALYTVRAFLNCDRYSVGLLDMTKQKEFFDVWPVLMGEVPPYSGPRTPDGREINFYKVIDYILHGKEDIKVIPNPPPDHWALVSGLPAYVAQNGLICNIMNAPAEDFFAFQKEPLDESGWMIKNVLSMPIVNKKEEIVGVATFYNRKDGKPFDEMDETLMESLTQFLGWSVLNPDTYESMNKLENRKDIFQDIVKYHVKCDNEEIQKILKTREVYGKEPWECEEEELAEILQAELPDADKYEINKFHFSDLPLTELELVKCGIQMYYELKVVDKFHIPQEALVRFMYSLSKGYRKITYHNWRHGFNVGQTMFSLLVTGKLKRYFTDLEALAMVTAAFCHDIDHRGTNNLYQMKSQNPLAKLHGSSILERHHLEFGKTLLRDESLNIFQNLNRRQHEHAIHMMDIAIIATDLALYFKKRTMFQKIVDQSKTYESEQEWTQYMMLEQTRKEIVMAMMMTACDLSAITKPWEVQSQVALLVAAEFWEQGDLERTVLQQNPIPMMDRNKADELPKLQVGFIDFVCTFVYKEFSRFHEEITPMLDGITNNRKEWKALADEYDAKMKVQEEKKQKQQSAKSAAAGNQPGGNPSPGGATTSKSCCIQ
The target in test [8] is T3, Type-2 angiotensin II receptor (Homo sapiens, UniProt P50052).
T3 sequence (P50052 whole entry): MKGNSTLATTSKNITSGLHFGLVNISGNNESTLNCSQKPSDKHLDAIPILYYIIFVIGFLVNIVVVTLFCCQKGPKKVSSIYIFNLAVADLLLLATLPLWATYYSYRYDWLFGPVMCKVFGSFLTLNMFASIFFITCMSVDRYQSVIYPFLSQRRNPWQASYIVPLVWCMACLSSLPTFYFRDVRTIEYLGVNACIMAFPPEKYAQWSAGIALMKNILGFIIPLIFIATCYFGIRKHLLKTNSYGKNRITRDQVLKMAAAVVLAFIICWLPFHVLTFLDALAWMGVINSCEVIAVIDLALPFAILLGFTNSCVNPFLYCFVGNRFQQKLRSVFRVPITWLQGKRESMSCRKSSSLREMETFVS
In kind it is functional.

The target of test [9] is T4, Retinoic acid receptor gamma (Homo sapiens, UniProt P13631).
T4 sequence (P13631 whole entry): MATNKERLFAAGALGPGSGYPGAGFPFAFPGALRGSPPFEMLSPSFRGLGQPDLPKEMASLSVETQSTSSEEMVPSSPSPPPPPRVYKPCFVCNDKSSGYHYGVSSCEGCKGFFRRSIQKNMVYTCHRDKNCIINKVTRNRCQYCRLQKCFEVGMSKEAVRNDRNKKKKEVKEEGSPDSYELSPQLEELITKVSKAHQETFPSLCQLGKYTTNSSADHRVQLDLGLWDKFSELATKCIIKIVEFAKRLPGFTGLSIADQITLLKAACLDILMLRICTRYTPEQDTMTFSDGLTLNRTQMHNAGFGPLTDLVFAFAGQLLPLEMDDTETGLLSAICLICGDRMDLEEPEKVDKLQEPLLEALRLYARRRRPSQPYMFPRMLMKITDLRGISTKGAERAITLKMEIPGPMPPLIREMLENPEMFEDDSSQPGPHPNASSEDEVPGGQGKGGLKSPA
The class given is functional, cell-based.

As a reminder, the AC50 is the concentration giving half of the maximal activity seen.
Note: assay procedure not described here.

Sequence of Cannabinoid receptor 1 (P21554 whole entry): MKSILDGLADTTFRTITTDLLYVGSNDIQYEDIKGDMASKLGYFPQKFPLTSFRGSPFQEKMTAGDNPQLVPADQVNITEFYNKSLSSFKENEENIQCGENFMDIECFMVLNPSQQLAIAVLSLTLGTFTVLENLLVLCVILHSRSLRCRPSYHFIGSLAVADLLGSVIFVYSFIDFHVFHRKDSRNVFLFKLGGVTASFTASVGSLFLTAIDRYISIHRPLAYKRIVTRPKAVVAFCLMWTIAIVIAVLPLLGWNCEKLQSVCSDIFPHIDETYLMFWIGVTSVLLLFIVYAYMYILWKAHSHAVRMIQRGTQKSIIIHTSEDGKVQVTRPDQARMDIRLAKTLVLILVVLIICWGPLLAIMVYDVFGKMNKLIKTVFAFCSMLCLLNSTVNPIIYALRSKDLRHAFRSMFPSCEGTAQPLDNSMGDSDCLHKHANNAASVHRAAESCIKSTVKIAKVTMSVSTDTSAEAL
Sequence of Synaptic vesicular amine transporter (Q01827 whole entry): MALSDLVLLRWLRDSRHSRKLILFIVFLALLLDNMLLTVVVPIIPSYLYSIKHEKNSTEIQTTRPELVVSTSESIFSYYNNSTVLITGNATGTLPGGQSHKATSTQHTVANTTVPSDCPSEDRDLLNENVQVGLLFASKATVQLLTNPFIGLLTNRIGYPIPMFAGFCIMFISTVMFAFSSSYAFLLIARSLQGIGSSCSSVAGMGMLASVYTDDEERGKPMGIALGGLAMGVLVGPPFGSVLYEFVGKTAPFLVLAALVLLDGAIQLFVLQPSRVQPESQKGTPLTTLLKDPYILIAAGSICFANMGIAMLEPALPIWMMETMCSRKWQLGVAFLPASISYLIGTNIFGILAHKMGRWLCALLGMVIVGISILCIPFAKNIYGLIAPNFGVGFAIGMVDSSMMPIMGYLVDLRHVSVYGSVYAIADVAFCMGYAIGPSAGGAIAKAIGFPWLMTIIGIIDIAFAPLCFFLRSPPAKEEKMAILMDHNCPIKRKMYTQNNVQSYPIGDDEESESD
Sequence of Voltage-dependent L-type calcium channel subunit alpha-1C (Q13936 whole entry): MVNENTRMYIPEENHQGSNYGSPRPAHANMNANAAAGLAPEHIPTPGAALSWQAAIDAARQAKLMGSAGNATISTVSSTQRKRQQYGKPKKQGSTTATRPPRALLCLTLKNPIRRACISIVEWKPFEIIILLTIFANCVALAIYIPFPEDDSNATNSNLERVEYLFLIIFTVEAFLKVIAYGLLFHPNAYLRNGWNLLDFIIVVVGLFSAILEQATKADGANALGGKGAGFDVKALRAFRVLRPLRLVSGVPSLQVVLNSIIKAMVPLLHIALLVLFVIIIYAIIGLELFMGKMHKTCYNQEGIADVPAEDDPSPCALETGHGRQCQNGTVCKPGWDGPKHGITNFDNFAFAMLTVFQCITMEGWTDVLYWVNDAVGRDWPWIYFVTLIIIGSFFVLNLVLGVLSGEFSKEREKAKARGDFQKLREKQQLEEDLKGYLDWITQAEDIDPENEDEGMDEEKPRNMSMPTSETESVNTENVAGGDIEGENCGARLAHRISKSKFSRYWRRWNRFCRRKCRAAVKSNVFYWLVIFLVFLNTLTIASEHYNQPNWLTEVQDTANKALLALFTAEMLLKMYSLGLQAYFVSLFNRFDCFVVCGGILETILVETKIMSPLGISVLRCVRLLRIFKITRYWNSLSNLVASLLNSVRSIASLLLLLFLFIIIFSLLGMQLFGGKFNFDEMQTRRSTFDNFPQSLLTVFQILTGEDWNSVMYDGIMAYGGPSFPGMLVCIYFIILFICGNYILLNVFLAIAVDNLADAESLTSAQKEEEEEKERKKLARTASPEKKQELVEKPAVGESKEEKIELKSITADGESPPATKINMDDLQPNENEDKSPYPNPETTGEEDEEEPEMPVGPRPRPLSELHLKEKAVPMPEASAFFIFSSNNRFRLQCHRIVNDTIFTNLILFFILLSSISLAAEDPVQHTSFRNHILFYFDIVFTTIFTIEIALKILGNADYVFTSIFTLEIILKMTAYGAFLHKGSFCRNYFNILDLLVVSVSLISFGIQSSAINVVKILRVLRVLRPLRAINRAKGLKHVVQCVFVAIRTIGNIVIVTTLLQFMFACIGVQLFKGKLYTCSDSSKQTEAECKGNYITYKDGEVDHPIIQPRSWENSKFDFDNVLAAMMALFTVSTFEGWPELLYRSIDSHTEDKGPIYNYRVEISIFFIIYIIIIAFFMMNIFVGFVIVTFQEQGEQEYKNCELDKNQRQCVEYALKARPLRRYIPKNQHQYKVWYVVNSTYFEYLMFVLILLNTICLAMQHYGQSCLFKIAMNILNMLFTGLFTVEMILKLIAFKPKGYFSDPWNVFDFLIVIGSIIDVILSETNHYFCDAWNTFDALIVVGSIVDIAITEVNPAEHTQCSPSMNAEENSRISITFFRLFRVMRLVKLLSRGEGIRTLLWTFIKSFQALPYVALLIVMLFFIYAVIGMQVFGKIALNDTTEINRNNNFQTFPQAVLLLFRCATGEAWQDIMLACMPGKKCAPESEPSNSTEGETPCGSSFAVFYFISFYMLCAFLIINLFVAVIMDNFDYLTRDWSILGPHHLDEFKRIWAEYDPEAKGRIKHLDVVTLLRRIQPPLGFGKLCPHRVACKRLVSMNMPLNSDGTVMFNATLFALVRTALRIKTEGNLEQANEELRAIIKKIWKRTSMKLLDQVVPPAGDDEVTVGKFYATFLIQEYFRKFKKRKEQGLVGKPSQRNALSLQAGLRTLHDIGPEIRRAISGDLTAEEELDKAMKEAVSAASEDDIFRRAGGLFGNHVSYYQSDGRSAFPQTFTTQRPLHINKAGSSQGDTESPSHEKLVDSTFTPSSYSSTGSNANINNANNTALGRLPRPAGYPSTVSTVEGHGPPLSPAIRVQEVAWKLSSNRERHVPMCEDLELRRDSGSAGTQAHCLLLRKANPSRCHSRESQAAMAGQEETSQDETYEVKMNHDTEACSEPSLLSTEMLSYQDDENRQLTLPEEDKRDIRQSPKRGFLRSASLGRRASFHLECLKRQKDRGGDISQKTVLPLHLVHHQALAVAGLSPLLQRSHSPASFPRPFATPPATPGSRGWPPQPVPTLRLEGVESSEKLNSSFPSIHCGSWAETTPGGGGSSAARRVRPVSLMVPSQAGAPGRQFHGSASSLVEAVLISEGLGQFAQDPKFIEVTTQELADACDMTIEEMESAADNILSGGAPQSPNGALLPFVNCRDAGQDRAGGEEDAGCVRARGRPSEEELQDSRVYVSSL

For the compound `O=C(O)c1ccc2nc(-c3cc(Cl)cc(Cl)c3)oc2c1`, the AC50 in test [1] was above 30 µM.

For `COc1ccc(-n2nc(C(N)=O)c3c2C(=O)N(c2ccc(N4CCCCC4=O)cc2)CC3)cc1` [APIXABAN], the AC50 at Estrogen receptor [2], at Glucocorticoid receptor and on Estrogen receptor [3] was above 30 µM each time.

`CC(NC(C)(C)C)C(=O)c1cccc(Cl)c1` (configuration not stated) [BUPROPION]: the half-maximal activity concentration (AC50) was above 10 µM in test [4], above 30 µM in test [5], above 10 µM in test [6] and above 10 µM at Cannabinoid receptor 1.

Regarding `CCCCCCOC(=O)NC(=N)c1ccc(NCc2nc3cc(C(=O)N(CCC(=O)OCC)c4ccccn4)ccc3n2C)cc1` [DABIGATRAN ETEXILATE], the AC50 at Estrogen receptor [2], at Glucocorticoid receptor and at Estrogen receptor [3] was above 30 µM in each case.

On to `Cc1ccc(-c2ncc(Cl)cc2-c2ccc(S(C)(=O)=O)cc2)cn1` [ETORICOXIB], for which the AC50 (in [4]; in test [7]; in test [6]; at Cannabinoid receptor 1) was above 10 µM each time.

Turning to `CN1C2CCCC1CC(NC(=O)c1nn(C)c3ccccc13)C2` (configuration not stated) [GRANISETRON], the AC50 (in test [4]; in [7]; in test [6]; at Cannabinoid receptor 1) was above 10 µM in each case.

In turn, `CC1Cc2ccccc2N1NC(=O)c1ccc(Cl)c(S(N)(=O)=O)c1` (configuration not stated) [INDAPAMIDE] had a concentration at half-maximal activity (AC50) in test [8] above 100 µM.

Take `CC(=O)N1CCN(c2ccc(OCC3COC(Cn4ccnc4)(c4ccc(Cl)cc4Cl)O3)cc2)CC1` (configuration not stated) [KETOCONAZOLE]: the figures for the concentration at half-maximal activity (AC50) in test [5] and in test [9] were 0.57 µM and above 30 µM, respectively.

`CCN(CC)CC(=O)Nc1c(C)cccc1C` [LIDOCAINE]: in test [7], the AC50 is above 10 µM.

Consider `CC(C)(C)NCC(O)COc1cccc2c1CC(O)C(O)C2` (configuration not stated) [NADOLOL], for which the AC50 in test [8] was above 100 µM.

As for `COC(=O)c1ccc2c(c1)NC(=O)/C2=C(\Nc1ccc(N(C)C(=O)CN2CCN(C)CC2)cc1)c1ccccc1` [NINTEDANIB], the AC50 is above 30 µM at Estrogen receptor [2] and above 10 µM on Estrogen receptor [3].

With `CCCCCCCC(=O)CC[C@@H]1[C@@H](C/C=C\CCCC(=O)O)[C@@H](O)C[C@H]1O` [UNOPROSTONE], the half-maximal activity concentration (AC50) in test [1] was above 50 µM.
